In patent publication US10669235B2, “Indole derivatives and their use as protein kinase inhibitors” (RESPIVERT LIMITED, priority 2016, dated 2020):
Where a name gives a salt, the structure may show the parent alone. Read-outs that look alike come from different tables or passages of the source.

Assays:
PDGFRβ = PDGFRβ (Homo sapiens (Human), UniProt P09619); assay: PDGF-BB induced phosphorylation of PDGFRβ in fibroblasts (MRC5, HTRF); format: cell-based; details: MRC5 cells, PDGFBB stimulation; read-out: PDGFBB-induced PDGFRβ phosphorylation in MRC5 cells (IC50)
Chain of PDGFRβ (P09619 33-1106): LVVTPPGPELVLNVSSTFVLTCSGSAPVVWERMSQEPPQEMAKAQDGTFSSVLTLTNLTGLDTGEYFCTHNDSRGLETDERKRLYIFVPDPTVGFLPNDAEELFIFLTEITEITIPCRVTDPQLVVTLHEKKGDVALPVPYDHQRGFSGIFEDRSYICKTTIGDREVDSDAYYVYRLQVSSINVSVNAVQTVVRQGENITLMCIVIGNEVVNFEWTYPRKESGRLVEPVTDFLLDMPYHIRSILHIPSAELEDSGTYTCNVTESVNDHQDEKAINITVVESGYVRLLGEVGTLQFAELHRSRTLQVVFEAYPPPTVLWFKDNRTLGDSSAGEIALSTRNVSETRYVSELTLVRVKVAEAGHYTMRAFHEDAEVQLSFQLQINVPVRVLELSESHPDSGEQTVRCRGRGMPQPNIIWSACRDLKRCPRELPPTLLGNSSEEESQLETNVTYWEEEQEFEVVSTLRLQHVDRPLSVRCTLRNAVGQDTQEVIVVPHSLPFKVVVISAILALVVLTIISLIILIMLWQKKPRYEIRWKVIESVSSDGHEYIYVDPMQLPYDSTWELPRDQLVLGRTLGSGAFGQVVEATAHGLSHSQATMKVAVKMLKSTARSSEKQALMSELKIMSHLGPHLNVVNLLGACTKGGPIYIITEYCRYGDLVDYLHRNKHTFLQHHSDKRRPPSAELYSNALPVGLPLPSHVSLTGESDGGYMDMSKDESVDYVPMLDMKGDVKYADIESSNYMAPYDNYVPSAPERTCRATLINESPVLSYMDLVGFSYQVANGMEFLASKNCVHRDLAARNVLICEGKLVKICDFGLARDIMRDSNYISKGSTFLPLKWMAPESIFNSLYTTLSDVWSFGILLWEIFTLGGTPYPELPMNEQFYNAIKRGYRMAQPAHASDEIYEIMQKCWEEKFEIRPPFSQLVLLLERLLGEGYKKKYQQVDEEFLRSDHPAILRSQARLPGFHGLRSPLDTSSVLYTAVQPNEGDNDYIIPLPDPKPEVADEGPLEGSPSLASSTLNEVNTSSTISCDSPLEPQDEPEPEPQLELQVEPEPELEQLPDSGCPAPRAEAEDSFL

PAMPA permeability assay = format: in vitro ADME; details: for recovery at 5 hr, 10 μM / Papp at 5 hr, 10 μM: pH 7, PAMPA; for Papp at 5 hr, 10 μM: pH 7, 10 μM
MRC5 cells = assay: Cell viability assay in MRC5 cells (MTT)
[1] = Pharmacokinetic measurements in rats (i.v., i.t., oral); format: in vivo; details: rat; for concentration at 0.1 h: read-out: lung concentration (nM) at time 0.1 h; for concentration at 1.5 h: read-out: lung concentration (nM) at time 1.5 h; for concentration at 6 h: read-out: lung concentration (nM) at time 6 h; for concentration at 24 h: read-out: lung concentration (nM) at time 24 h
[2] = i.t. dose 0.1 (nintedanib 0.42), 0.1 h
[3] = i.t. dose 0.1 (nintedanib 0.42), 1.5 h
[4] = i.t. dose 0.1 (nintedanib 0.42), 6 h
[5] = i.t. dose 0.1 (nintedanib 0.42), 24 h
[6] = i.v. dose 0.1 (nintedanib 0.42), 0.1 h
[7] = i.v. dose 0.1 (nintedanib 0.42), 1.5 h
[8] = i.v. dose 0.1 (nintedanib 0.42), 6 h
[9] = i.v. dose 0.1 (nintedanib 0.42), 24 h
[10] = male, CD, lung, other: intra-tracheal

COC(=O)c1cc2c(cc1C)/C(=C(/Nc1ccc(S(=O)(=O)NCCN3CCN(C)CC3)cc1)c1ccccc1)C(=O)N2 [Example 1, (Z)-Methyl 5-methyl-3-(((4-(N-(2-(4-methylpiperazin-1-yl)ethyl)sulfamoyl)phenyl)amino)(phenyl)methylene)-2-oxoindoline-6-carboxylate, 0.8 formate]
IC50 (PDGFRβ): 25.6 nM | recovery at 5 hr, 10 μM (PAMPA permeability assay): 92% | Papp at 5 hr, 10 μM (PAMPA permeability assay): 0.123 ×10⁻⁶ cm/s | Cell viability at 100 nM (%) (MRC5 cells): 103.6% | Cell viability at 300 nM (%) (MRC5 cells): 89% | Cell viability at 1000 nM (%) (MRC5 cells): 68.7%

COC(=O)c1cc2c(cc1C)/C(=C(/Nc1ccc(C(=O)NCCN3CCCN(C)CC3)cc1)c1ccccc1)C(=O)N2 [Example 5, (Z)-Methyl 5-methyl-3-(((4-((2-(4-methyl-1,4-diazepan-1-yl)ethyl)carbamoyl)phenyl)amino) (phenyl)methylene)-2-oxoindoline-6-carboxylate, formate]
IC50 (PDGFRβ): 15 nM | recovery at 5 hr, 10 μM (PAMPA permeability assay): 58.7% | Papp at 5 hr, 10 μM (PAMPA permeability assay): 0.00254 ×10⁻⁶ cm/s | Lung conc i.t./i.v. Ratio at time 0.1 h ([1]; 0.1 h): 7 | Lung conc i.t./i.v. Ratio at time 1.5 h ([1]; 1.5 h): 12 | Lung conc i.t./i.v. Ratio at time 6 h ([1]; 6 h): 2 | Lung conc i.t./i.v. Ratio at time 24 h ([1]; 24 h): 7 | BAL % administered dose at time 0.1 h [1, 2]: 13.6% | lung/plasma conc ratio at time 0.1 h [1, 2]: 371 | concentration at 0.1 h [1, 2]: 5506 nM | BAL % administered dose at time 1.5 h [1, 3]: 0.9% | lung/plasma conc ratio at time 1.5 h [1, 3]: >2285 | concentration at 1.5 h [1, 3]: 4022 nM | BAL % administered dose at time 6 h [1, 4]: 0.2% | lung/plasma conc ratio at time 6 h [1, 4]: >606 | concentration at 6 h [1, 4]: 1067 nM | BAL % administered dose at time 24 h [1, 5]: 0.2% | lung/plasma conc ratio at time 24 h [1, 5]: >951 | concentration at 24 h [1, 5]: 1674 nM | BAL % administered dose at time 0.1 h [1, 6]: BQL | lung/plasma ratio at time 0.1 h [1, 6]: 127 | concentration at 0.1 h [1, 6]: 765 nM | BAL % administered dose at time 1.5 h [1, 7]: BQL | lung/plasma ratio at time 1.5 h [1, 7]: >188 | concentration at 1.5 h [1, 7]: 330 nM | BAL % administered dose at time 6 h [1, 8]: BQL | lung/plasma ratio at time 6 h [1, 8]: >284 | concentration at 6 h [1, 8]: 499 nM | BAL % administered dose at time 24 h [1, 9]: BQL | lung/plasma ratio at time 24 h [1, 9]: >140 | concentration at 24 h [1, 9]: 247 nM | Cell viability at 100 nM (%) (MRC5 cells): 91.5% | Cell viability at 300 nM (%) (MRC5 cells): 81% | Cell viability at 1000 nM (%) (MRC5 cells): 84.8%

COC(=O)c1cc2c(cc1C)/C(=C(/Nc1ccc(C(=O)NCC(=O)N3CCN(C)CC3)cc1)c1ccccc1)C(=O)N2 [Example 8, (Z)-Methyl 5-methyl-3-(((4-((2-(4-methylpiperazin-1-yl)-2-oxoethyl)carbamoyl)phenyl)amino) (phenyl)methylene)-2-oxoindoline-6-carboxylate, 0.5 formate]
IC50 (PDGFRβ): 12 nM | recovery at 5 hr, 10 μM (PAMPA permeability assay): 87.8% | Papp at 5 hr, 10 μM (PAMPA permeability assay): 0.156 ×10⁻⁶ cm/s | Cell viability at 100 nM (%) (MRC5 cells): 110.4% | Cell viability at 300 nM (%) (MRC5 cells): 108.2% | Cell viability at 1000 nM (%) (MRC5 cells): 77.7%

COC(=O)c1cc2c(cc1C)/C(=C(/Nc1ccc(C(=O)NCCN3CCC(O)CC3)cc1)c1ccccc1)C(=O)N2 [Example 12, (Z)-Methyl 3-(((4-((2-(4-hydroxypiperidin-1-yl)ethyl)carbamoyl)phenyl)amino)(phenyl)methylene)-5-methyl-2-oxoindoline-6-carboxylate, 0.8 formate]
IC50 (PDGFRβ): 4.23 nM | recovery at 5 hr, 10 μM (PAMPA permeability assay): 87.7% | Papp at 5 hr, 10 μM (PAMPA permeability assay): 0.00638 ×10⁻⁶ cm/s | Cell viability at 100 nM (%) (MRC5 cells): 92.2% | Cell viability at 300 nM (%) (MRC5 cells): 105.5% | Cell viability at 1000 nM (%) (MRC5 cells): 93.4%

COC(=O)c1cc2c(cc1C)/C(=C(/Nc1ccc(C(=O)NCC3CCN(CCO)CC3)cc1)c1ccccc1)C(=O)N2 [Example 14, (Z)-Methyl 3-(((4-(((1-(2-hydroxyethyl)piperidin-4-yl)methyl)carbamoyl)phenyl)amino) (phenyl)methylene)-5-methyl-2-oxoindoline-6-carboxylate]
Cell viability at 100 nM (%) (MRC5 cells): 116.2% | Cell viability at 300 nM (%) (MRC5 cells): 107.9% | Cell viability at 1000 nM (%) (MRC5 cells): 61%

COC(=O)c1cc2c(cc1C)/C(=C(/Nc1ccc(C(=O)N3CCN(CC(=O)NCCO)CC3)cc1)c1ccccc1)C(=O)N2 [Example 15, (Z)-Methyl 3-(((4-(4-(2-((2-hydroxyethyl)amino)-2-oxoethyl)piperazine-1-carbonyl)phenyl)amino) (phenyl)methylene)-5-methyl-2-oxoindoline-6-carboxylate]
Cell viability at 100 nM (%) (MRC5 cells): 91.3% | Cell viability at 300 nM (%) (MRC5 cells): 109.9% | Cell viability at 1000 nM (%) (MRC5 cells): 85.6%

COC(=O)c1cc2c(cc1C)/C(=C(/Nc1ccc(C(=O)NC3CCN(CCO)CC3)cc1)c1ccccc1)C(=O)N2 [Example 49, (Z)-Methyl 3-(((4-((1-(2-hydroxyethyl)piperidin-4-yl)carbamoyl)phenyl)amino)(phenyl)methylene)-5-methyl-2-oxoindoline-6-carboxylate]
IC50 (PDGFRβ): 1.25 nM

COC(=O)c1cc2c(cc1C)/C(=C(/Nc1ccc(C(=O)NCC3CCN(CCO)CC3)cc1)c1ccccc1)C(=O)N2 [Example 50, (Z)-Methyl 3-(((4-(((1-(2-hydroxyethyl)piperidin-4-yl)methyl)carbamoyl)phenyl)amino)(phenyl)methylene)-5-methyl-2-oxoindoline-6-carboxylate]
Cell viability at 100 nM (%) (MRC5 cells): 116.2% | Cell viability at 300 nM (%) (MRC5 cells): 107.9% | Cell viability at 1000 nM (%) (MRC5 cells): 61.0%

COC(=O)c1cc2c(cc1C)/C(=C(/Nc1ccc(C(=O)NCCN(C)CCO)cc1)c1ccccc1)C(=O)N2 [Example 51, (Z)-Methyl 3-(((4-((2-((2-hydroxyethyl)(methyl)amino)ethyl)carbamoyl)phenyl)amino)(phenyl)methylene)-5-methyl-2-oxoindoline-6-carboxylate]
IC50 (PDGFRβ): 6.71 nM | Cell viability at 100 nM (%) (MRC5 cells): 113% | Cell viability at 300 nM (%) (MRC5 cells): 95.5% | Cell viability at 1000 nM (%) (MRC5 cells): 83.8%

COC(=O)c1cc2c(cc1C)/C(=C(/Nc1ccc(C(=O)NCCN3CCS(=O)(=O)CC3)cc1)c1ccccc1)C(=O)N2 [Example 52, (Z)-Methyl 3-(((4-((2-(1,1-dioxidothiomorpholino)ethyl)carbamoyl)phenyl)amino)(phenyl)methylene)-5-methyl-2-oxoindoline-6-carboxylate]
IC50 (PDGFRβ): 5.49 nM | Cell viability at 100 nM (%) (MRC5 cells): 81.3% | Cell viability at 300 nM (%) (MRC5 cells): 81.2% | Cell viability at 1000 nM (%) (MRC5 cells): 85.9%

COC(=O)c1cc2c(cc1C)/C(=C(/Nc1ccc(C(=O)NCCN3CCNC(=O)CC3)cc1)c1ccccc1)C(=O)N2 [Example 53, (Z)-Methyl 5-methyl-2-oxo-3-(((4-((2-(5-oxo-1,4-diazepan-1-yl)ethyl)carbamoyl)phenyl)amino)(phenyl)methylene)indoline-6-carboxylate]
IC50 (PDGFRβ): 6.5 nM | Cell viability at 100 nM (%) (MRC5 cells): 89.1% | Cell viability at 300 nM (%) (MRC5 cells): 92.9% | Cell viability at 1000 nM (%) (MRC5 cells): 95.3%

COC(=O)c1ccc2c(c1)NC(=O)/C2=C(\Nc1ccc(N(C)C(=O)CN2CCN(C)CC2)cc1)c1ccccc1 [Nintedanib, reference compound]
% Recovery (PAMPA permeability assay): 64.0% | recovery at 5 hr, 10 μM (PAMPA permeability assay): 83.5% | concentration at 0.1 h ([1]; male, CD, lung, iv): 2300 nM | concentration at 1.5 h ([1]; male, CD, lung, iv): 1390 nM | concentration at 24 h ([1]; male, CD, lung, iv): 66 nM | concentration at 0.1 h [1, 10]: 12400 nM | concentration at 1.5 h [1, 10]: 7700 nM | concentration at 24 h [1, 10]: 152 nM | MRT ([1]; male, CD, plasma, iv): 3.8 h | clearance ([1]; male, CD, plasma, iv): 124 mL/min/kg | half-life ([1]; male, CD, plasma, iv): 3.9 h | Vd ([1]; male, CD, plasma, iv, read-out: Vss): 28 L/kg | i.t. BAV (%) ([1]; i.t. dose 0.1 (nintedanib 0.42)): 43% | BAL % administered dose at time 0.1 h [1, 2]: 2% | BAL % administered dose at time 1.5 h [1, 3]: 1% | BAL % administered dose at time 24 h [1, 5]: 0.1% | BAL % administered dose at time 0.1 h [1, 6]: 0.06% | BAL % administered dose at time 1.5 h [1, 7]: 0.03% | BAL % administered dose at time 24 h [1, 9]: BQL | Cell viability at 100 nM (%) (MRC5 cells): 104.6% | Cell viability at 300 nM (%) (MRC5 cells): 105.6% | Cell viability at 1000 nM (%) (MRC5 cells): 92.7%
